In patent US5952368A, “5-aroylpyrrol-2-ylmethylarene derivatives” (Syntex (U.S.A.) Inc., priority 1997, dated 1999):

Key:
COX I = molecular target: T1, COX I (Homo sapiens, UniProt P23219); test: Inhibition of COX I in vitro (radiometric assay, 14C arachidonic acid, partially purified enzyme); type: biochemical; settings: partially purified COX I, 20 micromolar arachidonic acid, 10 min preincubation, room temperature; read-out: COX I IC50
T1 construct: made in house; baculovirus-infected insect cells by own knowledge of the cited Barnett et al. 1994
T1 sequence (P23219 24-599): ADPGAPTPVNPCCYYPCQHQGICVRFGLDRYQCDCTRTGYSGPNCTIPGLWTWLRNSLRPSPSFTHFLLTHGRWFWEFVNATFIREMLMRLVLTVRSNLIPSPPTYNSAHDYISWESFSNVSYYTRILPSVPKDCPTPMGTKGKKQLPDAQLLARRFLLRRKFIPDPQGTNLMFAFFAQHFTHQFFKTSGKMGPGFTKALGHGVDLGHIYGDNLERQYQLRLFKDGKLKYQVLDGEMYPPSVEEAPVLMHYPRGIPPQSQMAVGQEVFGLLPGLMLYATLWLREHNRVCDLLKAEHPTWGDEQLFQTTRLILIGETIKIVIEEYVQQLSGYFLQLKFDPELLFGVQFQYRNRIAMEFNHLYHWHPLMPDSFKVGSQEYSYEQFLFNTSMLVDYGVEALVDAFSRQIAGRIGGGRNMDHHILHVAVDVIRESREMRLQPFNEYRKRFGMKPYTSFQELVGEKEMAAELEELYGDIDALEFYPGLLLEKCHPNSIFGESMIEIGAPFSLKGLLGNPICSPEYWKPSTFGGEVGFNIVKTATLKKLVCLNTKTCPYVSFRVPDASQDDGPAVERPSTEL
Procedure: (§1) The COX I and COX II inhibitory activity of compounds of this invention in vitro was determined using partially purified COX I and COX II enzymes, prepared as described in J. Barnett et al., Biochim. Biophys. Acta, 1209:130--139 (1994).
(§2) COX I and COX II samples were diluted with Tris-HCl buffer (50 mM Tris-HCl pH 7.9) containing 2 mM EDTA and 10% glycerol and reconstituted by incubating first with 2 mM phenol for 5 minutes and then with 1 micromolar hematin for an additional 5 minutes. 125 μl of the reconstituted COX I or COX II enzyme were preincubated for 10 minutes at room temperature in a shaking water bath with the compounds of the invention dissolved in 2-15 μl of DMSO or the carrier vehicles (control samples). The enzyme reaction was initiated by adding 25 μl of 1-[14C] arachidonic acid (80,000-100,000 cpm/tube; 20 micromolar final concentration) and the reaction was allowed to continue for an additional 45 seconds. The reaction was terminated by adding 100 μl of 2N HCl and 750 μl water. An aliquot (950 μl) of the reaction mixture was loaded onto a 1 ml C18 Sep-Pak column (J. T. Baker, Phillipsburg, N.J.) which had been previously washed with 2-3 ml methanol and equilibrated with 5-6 ml distilled water. Oxygenated products were quantitatively eluted with 3 ml of acetonitrile/water/acetic acid (50:50:0.1, v/v) and the radioactivity in the eluate determined in a scintillation counter.

COX II = molecular target: T2, COX II (Homo sapiens, UniProt P35354); test: Inhibition of COX II in vitro (radiometric assay, 14C arachidonic acid, partially purified enzyme); type: biochemical; settings: partially purified COX II, 20 micromolar arachidonic acid, 10 min preincubation, room temperature; read-out: COX II IC50
T2 construct: made in house; baculovirus-infected insect cells by own knowledge of the cited Barnett et al. 1994
T2 sequence (P35354 18-604): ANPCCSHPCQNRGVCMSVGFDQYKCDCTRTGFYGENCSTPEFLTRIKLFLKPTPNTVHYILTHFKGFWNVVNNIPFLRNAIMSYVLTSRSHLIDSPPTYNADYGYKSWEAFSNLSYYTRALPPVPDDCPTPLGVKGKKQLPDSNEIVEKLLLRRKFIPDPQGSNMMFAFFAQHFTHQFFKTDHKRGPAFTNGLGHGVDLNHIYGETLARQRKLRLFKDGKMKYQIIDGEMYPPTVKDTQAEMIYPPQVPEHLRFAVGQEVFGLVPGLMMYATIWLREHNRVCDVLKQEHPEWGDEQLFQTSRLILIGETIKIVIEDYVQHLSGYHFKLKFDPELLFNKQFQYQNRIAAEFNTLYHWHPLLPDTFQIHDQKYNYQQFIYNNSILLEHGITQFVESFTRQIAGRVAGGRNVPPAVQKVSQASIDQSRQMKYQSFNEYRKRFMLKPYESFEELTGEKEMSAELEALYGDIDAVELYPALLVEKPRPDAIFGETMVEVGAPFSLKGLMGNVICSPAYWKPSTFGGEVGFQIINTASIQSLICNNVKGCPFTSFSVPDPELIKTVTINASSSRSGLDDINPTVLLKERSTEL
Procedure: as §1, §2

| Compound | IC50 (COX I) [µM] | IC50 (COX II) [µM] |
| --- | --- | --- |
| Cc1cc(Cc2ccc(NS(C)(=O)=O)cc2)n(C)c1C(=O)c1ccc(Cl)cc1 [compound 1, N-{4-[5-(4-Chlorobenzoyl)-1,4-dimethyl-1H-pyrrol-2-ylmethyl]phenyl}methane-sulfonamide] | 11 | 0.15 |
| Cc1cc(C(C)c2ccc(NS(C)(=O)=O)cc2)n(C)c1C(=O)c1ccc(Cl)cc1 (stereo not shown) [compound 11, N-{4-[5-(4-Chlorobenzoyl)-1,4-dimethyl-1H-pyrrol-2-ylethan-1-yl]phenyl}-methanesulfonamide] | 7.5 | 0.51 |
| Cc1ccc(C(=O)c2ccc(Cc3ccc(NS(C)(=O)=O)cc3)n2C)cc1 [compound 28, N-{4-[5-(4-Methylbenzoyl)-1-methyl-1H-pyrrol-2-ylmethyl]phenyl}methanesulfonamide] | 33 | 0.19 |
| Cc1cc(Cc2ccc(NS(=O)(=O)CCO)cc2F)n(C)c1C(=O)c1ccccc1 [compound 63, N-{3-Fluoro-4-[5-benzoyl-1,4-dimethyl-1H-pyrrol-2-ylmethyl]phenyl}-2-(hydroxy)-ethanesulfonamide] | 0.035 | 0.33 |
| Cn1c(Cc2ccc(NS(=O)(=O)CCO)cc2F)ccc1C(=O)c1ccccc1 [compound 66, N-{3-Fluoro-4-[5-benzoyl-1-methyl-1H-pyrrol-2-ylmethyl]phenyl}-2-(hydroxy)-ethanesulfonamide] | 6.9 | 0.12 |
| Cc1ccccc1C(=O)c1ccc(Cc2ccc(NS(C)(=O)=O)cc2F)n1C [compound 71, N-{3-Fluoro-4-[5-(2-methylbenzoyl)-1-methyl-1H-pyrrol-2-ylmethyl]phenyl}-methanesulfonamide] | 38 | 0.16 |
| COc1ccccc1C(=O)c1ccc(Cc2ccc(NS(C)(=O)=O)cc2F)n1C [compound 72, N-{3-Fluoro-4-[5-(2-methoxybenzoyl)-1-methyl-1H-pyrrol-2-ylmethyl]phenyl}-methanesulfonamide] | 265 | 0.7 |
| Cc1cc(Cc2ccc(NS(=O)(=O)CCO)cc2F)n(C)c1C(=O)c1ccc(F)cc1 [compound 104, N-{3-Fluoro-4-[5-(4-fluorobenzoyl)-1,4-dimethyl-1H-pyrrol-2-ylmethyl]phenyl}-2-(hydroxy)ethanesulfonamide] | 0.75 | 0.24 |
| CS(=O)(=O)Nc1ccc(C2CCn3c(C(=O)c4ccccc4)ccc32)c(Cl)c1 (stereo not shown) [compound 131, N-{3-Chloro-4-[5-Benzoyl-1,2-dihydro-3H-pyrrolizin-1-yl]phenyl}methanesulfonamide] | 0.2 | 0.077 |
| Cc1cc(Cc2ccc(NS(N)(=O)=O)cc2C#N)n(C)c1C(=O)c1ccc(Cl)cc1 [compound 147, 1-{3-Cyano-4-[5-(4-chlorobenzoyl)-1,4-dimethyl-1H-pyrrol-2-ylmethyl]phenyl}sulfamide] | 0.6 | 0.1 |
| CNS(=O)(=O)Nc1ccc(Cc2ccc(C(=O)c3ccc(C)cc3C)n2C)c(F)c1 [compound 172, 1-{3-Fluoro-4-[5-(2,4-dimethylbenzoyl)-1-methyl-1H-pyrrol-2-ylmethyl]phenyl}-3-methylsulfamide] | 43 | 0.09 |
| Cc1cc(Cc2ccc(NS(N)(=O)=O)cc2)n(C)c1C(=O)c1ccccc1 [compound 177, 1-{4-[5-benzoyl-1,4-dimethyl-1H-pyrrol-2-ylmethyl]phenyl}sulfamide] | 0.79 | 0.3 |
| Cc1cc(Cc2ccc(N)cn2)n(C)c1C(=O)c1ccc(Cl)cc1 [compound 333, {2-[5-(4-Chlorobenzoyl)-1,4-dimethyl-1H-pyrrol-2-ylmethyl]pyridin-5-yl}amine] | – | 78.4 |

The next molecules have a lower IC50 (COX II) than those just listed; values first:

| IC50 (COX I) [µM] | IC50 (COX II) [µM] | Compound |
| --- | --- | --- |
| 415 | 0.063 | Cc1cc(Cc2c(F)cc(NS(C)(=O)=O)cc2F)n(C)c1C(=O)c1ccc(Cl)cc1 [compound 27, N-{3,5-Difluoro-4-[5-(4-chlorobenzoyl)-1,4-dimethyl-1H-pyrrol-2-ylmethyl]-phenyl}-methanesulfonamide] |
| 3.9 | 0.045 | Cc1ccc(C(=O)c2ccc(Cc3ccc(NS(C)(=O)=O)cc3Cl)n2C)cc1 [compound 31, N-{3-Chloro-4-[5-(4-methylbenzoyl)-1-methyl-1H-pyrrol-2-ylmethyl]phenyl}-methanesulfonamide] |
| 0.27 | 0.065 | Cc1ccc(C(=O)c2c(C)cc(Cc3ccc(NS(C)(=O)=O)cc3F)n2C)cc1 [compound 38, N-{3-Fluoro-4-[5-(4-methylbenzoyl)-1,4-dimethyl-1H-pyrrol-2-ylmethyl]phenyl}-methanesulfonamide] |
| 0.16 | 0.028 | Cc1cc(Cc2ccc(NS(C)(=O)=O)cc2F)n(C)c1C(=O)c1ccccc1 [compound 60, N-{3-Fluoro-4-[5-benzoyl-1,4-dimethyl-1H-pyrrol-2-ylmethyl]phenyl}methanesulfonamide] |
| 0.86 | 0.073 | CCS(=O)(=O)Nc1ccc(Cc2cc(C)c(C(=O)c3ccccc3)n2C)c(F)c1 [compound 68, N-{3-Fluoro-4-[5-benzoyl-1,4-dimethyl-1H-pyrrol-2-ylmethyl]phenyl}ethanesulfonamide] |
| < 0.1 | 0.06 | CN(C)c1ccc(C(=O)c2ccc(Cc3ccc(NS(C)(=O)=O)cc3F)n2C)cc1 [compound 88, N-{3-Fluoro-4-[5-(4-dimethylaminobenzoyl)-1-methyl-1H-pyrrol-2-ylmethyl]phenyl}-methanesulfonamide] |
| 0.09 | 0.06 | COc1ccc(C(=O)c2c(C)cc(Cc3ccc(NS(C)(=O)=O)cc3F)n2C)cc1 [compound 95, N-{3-Fluoro-4-[5-(4-methoxybenzoyl)-1,4-dimethyl-1H-pyrrol-2-ylmethyl]phenyl}-methanesulfonamide] |
| < 0.1 | 0.038 | CCS(=O)(=O)Nc1ccc(Cc2cc(C)c(C(=O)c3ccc(OC)cc3)n2C)c(F)c1 [compound 97, N-{3-Fluoro-4-[5-(4-methoxybenzoyl)-1,4-dimethyl-1H-pyrrol-2-ylmethyl]phenyl}-ethanesulfonamide] |
| 0.95 | 0.07 | COc1ccc(C(=O)c2ccc(Cc3ccc(NS(=O)(=O)CCO)cc3F)n2C)cc1 [compound 106, N-{3-Fluoro-4-[5-(4-methoxybenzoyl)-1-methyl-1H-pyrrol-2-ylmethyl]phenyl}-2-(hydroxy)ethanesulfonamide] |
| 0.045 | 0.058 | COc1ccc(C(=O)c2ccc3n2CCC3c2ccc(NS(=O)(=O)CCO)cc2Cl)cc1 (stereo not shown) [compound 133, N-{3-Chloro-4-[5-(4-methoxybenzoyl)-1,2-dihydro-3H-pyrrolizin-1-yl]phenyl}-2(hydroxy)ethanesulfonamide] |
| 3.9 | 0.03 | Cc1cc(Cc2ccc(NS(N)(=O)=O)cc2)n(C)c1C(=O)c1ccc(Cl)cc1 [compound 141, 1-{4-[5-(4-Chlorobenzoyl)-1,4-dimethyl-1H-pyrrol-2-ylmethyl]phenyl}sulfamide] |
| 34 | 0.054 | Cc1ccc(C(=O)c2ccc(Cc3ccc(NS(N)(=O)=O)cc3F)n2C)cc1 [compound 154, 1-{3-Fluoro-4-[5-(4-methylbenzoyl)-1-methyl-1H-pyrrol-2-ylmethyl]phenyl}sulfamide] |
| 5 | 0.04 | COc1ccc(C(=O)c2ccc(Cc3ccc(NS(N)(=O)=O)cc3F)n2C)cc1 [compound 196, 1-{3-Fluoro-4-[5-(4-Methoxybenzoyl)-1-methyl-1H-pyrrol-2-ylmethyl]phenyl}sulfamide] |
| < 0.1 | 0.07 | COc1ccc(C(=O)c2c(C)cc(Cc3ccc(NS(N)(=O)=O)cc3F)n2C)cc1 [compound 197, 1-{3-Fluoro-4-[5-(4-Methoxybenzoyl)-1,4-dimethyl-1H-pyrrol-2-ylmethyl]phenyl}-sulfamide] |
| 3.2 | 0.05 | COc1ccc(C(=O)c2ccc(Cc3ccc(NS(N)(=O)=O)cc3C#N)n2C)cc1 [compound 202, 1-{3-Cyano-4-[5-(4-methoxybenzoyl)-1-methyl-1H-pyrrol-2-ylmethyl]phenyl}-sulfamide] |
